Reference: patent US20250290928A1, “METHOD, KIT AND DEVICE FOR DETECTING EXTRACELLULAR VESICLES” (priority 2022, published 2025)
“And” between values parts separate entries of the source, which are not always exact repeats. Identical values can stand only once. *: point of attachment. 5FAM = O=C1OC2(c3ccc(O)cc3Oc3cc(O)ccc32)c2ccc(C(=O)*)cc21; TQ2 = quencher

Test system: MMP14 in the HT1080 culture supernatants and the culture medium samples
Assay: Digital detection of MMP14 active component in HT1080 culture supernatants, culture media and recovered liquids in wells
Type: biochemical, Human
Conditions: for original concentration in the culture supernatant / amount of the extracellular vesicles in the fraction (0.7 mL): Example 59, qEV; for original concentration in the culture supernatant: recovered from 3 mL of the culture supernatant; for amount of the extracellular vesicles in the fraction (0.7 mL): 4 h
Protocol: In addition, for detection of MMP14 activity, 1 mM Custom #1 was diluted with the buffer (4) to prepare a MMP14 detection solution containing 5 μM Custom #1 and 2 μM Alexa Fluor 647.

[1] = Experiment condition (I): FBS, HT1080 culture Present, only centrifugation, Reaction 4 hr
[2] = Experiment condition (I): FBS, HT1080 culture Present, only centrifugation, Reaction 24 hr
[3] = Experiment condition (II): FBS, HT1080 culture Present, centrifugation + filtration, Reaction 4 hr
[4] = Experiment condition (II): FBS, HT1080 culture Present, centrifugation + filtration, Reaction 24 hr
[5] = Experiment condition (III): FBS culture medium, HT1080 culture Absent, Reaction 4 hr
[6] = Experiment condition (III): FBS culture medium, HT1080 culture Absent, Reaction 24 hr
[7] = Experiment condition (IV): Exo-FBS, HT1080 culture Present, only centrifugation, Reaction 4 hr
[8] = Experiment condition (IV): Exo-FBS, HT1080 culture Present, only centrifugation, Reaction 24 hr
[9] = Experiment condition (IX): MEM culture medium, HT1080 culture Absent, Reaction 4 hr
[10] = Experiment condition (IX): MEM culture medium, HT1080 culture Absent, Reaction 24 hr
[11] = Experiment condition (V): Exo-FBS, HT1080 culture Present, centrifugation + filtration, Reaction 4 hr
[12] = Experiment condition (V): Exo-FBS, HT1080 culture Present, centrifugation + filtration, Reaction 24 hr
[13] = Experiment condition (VI): Exo-FBS culture medium, HT1080 culture Absent, Reaction 4 hr
[14] = Experiment condition (VI): Exo-FBS culture medium, HT1080 culture Absent, Reaction 24 hr
[15] = Experiment condition (VII): MEM, HT1080 culture Present, only centrifugation, Reaction 4 hr
[16] = Experiment condition (VII): MEM, HT1080 culture Present, only centrifugation, Reaction 24 hr
[17] = Experiment condition (VIII): MEM, HT1080 culture Present, centrifugation + filtration, Reaction 4 hr
[18] = Experiment condition (VIII): MEM, HT1080 culture Present, centrifugation + filtration, Reaction 24 hr
[19] = HT1080 culture supernatant recovered with exoEasy, Exo-FBS, Reaction 4 hr
[20] = HT1080 culture supernatant recovered with exoEasy, Exo-FBS, Reaction 24 hr
[21] = HT1080 culture supernatant recovered with exoEasy, MEM, Reaction 4 hr
[22] = HT1080 culture supernatant recovered with exoEasy, MEM, Reaction 24 hr
[23] = qEV recovered liquid, Exo-FBS, Fraction # 8, 4 hours of reaction
[24] = qEV recovered liquid, Exo-FBS, Fraction # 9, 4 hours of reaction
[25] = qEV recovered liquid, Exo-FBS, Fraction # 10, 4 hours of reaction
[26] = qEV recovered liquid, Exo-FBS, Fraction # 11, 4 hours of reaction
[27] = qEV recovered liquid, Exo-FBS, Fraction # 12, 4 hours of reaction
[28] = qEV recovered liquid, Exo-FBS, Fraction # 13, 4 hours of reaction
[29] = qEV recovered liquid, Exo-FBS, Fraction # 14, 4 hours of reaction
[30] = qEV recovered liquid, Exo-FBS, Fraction # 15, 4 hours of reaction
[31] = qEV recovered liquid, MEM, Fraction # 7, 4 hours of reaction
[32] = qEV recovered liquid, MEM, Fraction # 8, 4 hours of reaction
[33] = qEV recovered liquid, MEM, Fraction # 9, 4 hours of reaction
[34] = qEV recovered liquid, MEM, Fraction # 10, 4 hours of reaction
[35] = qEV recovered liquid, MEM, Fraction # 11, 4 hours of reaction
[36] = qEV recovered liquid, MEM, Fraction # 12, 4 hours of reaction
[37] = qEV recovered liquid, MEM, Fraction # 13, 4 hours of reaction
[38] = qEV recovered liquid, MEM, Fraction # 14, 4 hours of reaction

In the case of “[5-FAM]GRIGFLRTAK(TQ2)[OH] (5FAM-GRIGFLRTAK(TQ2)-OH) [Custom #1]”, the “original concentration in the culture supernatant” value (Exo-FBS) is reported as 9.3259e+09 mL⁻¹, the “amount of the extracellular vesicles in the fraction (0.7 mL)” value (shortened to “amount … in the fraction (0.7 mL)”) (Fraction #7 of the MEM) is reported as 1.114×10^10 and the “amount … in the fraction (0.7 mL)” value (Fraction #8 of the Exo-FBS) is reported as 0.8283×10^10. For the same substance, the “amount … in the fraction (0.7 mL)” value (Fraction #8 of the MEM) was 0.5245×10^10, the “amount … in the fraction (0.7 mL)” value (Fraction #9 of the Exo-FBS) was 1.969×10^10 and the “original concentration in the culture supernatant” value (MEM) was 5.4612e+09 mL⁻¹. The “Expected value λ” value [1] was 0.9029, the Number of positives [1] was 16,696 and the Positive ratio [1] was 0.5946. The “Expected value λ” value [2] was 0.9382, the Number of positives [2] was 17,091 and the Positive ratio [2] was 0.6087. The “Expected value λ” value [3] was 0.7605, the Number of positives [3] was 14,954 and the Positive ratio [3] was 0.5325. For the same substance, the “Expected value λ” value [4] was 0.7723 and 0.7722, the Number of positives [4] was 15,051 and the Positive ratio [4] was 0.538. The “Expected value λ” value [5] was 0.6588, the Number of positives [5] was 13,549 and the Positive ratio [5] was 0.4825. For the same substance, the “Expected value λ” value [6] was 0.686, the Number of positives [6] was 13,900 and the Positive ratio [6] was 0.4964. The “Expected value λ” value [7] was 0.5033, the Number of positives [7] was 11,105 and the Positive ratio [7] was 0.3955. For the same substance, the “Expected value λ” value [8] was 0.4954, the Number of positives [8] was 10,939 and the Positive ratio [8] was 0.3906. For the same substance, the “Expected value λ” value [9] was 0.00011, the Number of positives [9] was 3 and the Positive ratio [9] was 0.00011. The “Expected value λ” value [10] was 0.00014, the Number of positives [10] was 4 and the Positive ratio [10] was 0.00014. For the same substance, the “Expected value λ” value [11] was 0.5687, the Number of positives [11] was 12,180 and the Positive ratio [11] was 0.4338. For the same substance, the “Expected value λ” value [12] was 0.5771, the Number of positives [12] was 12,313 and the Positive ratio [12] was 0.4385. The “Expected value λ” value [13] was 0.6217, the Number of positives [13] was 12,998 and the Positive ratio [13] was 0.4629. The “Expected value λ” value [14] was 0.6019, the Number of positives [14] was 12,698 and the Positive ratio [14] was 0.4522. The “Expected value λ” value [15] was 0.00335, the Number of positives [15] was 94 and the Positive ratio [15] was 0.00335. The “Expected value λ” value [16] was 0.01005, the Number of positives [16] was 280 and the Positive ratio [16] was 0.01005. The “Expected value λ” value [17] was 0.00514, the Number of positives [17] was 144 and the Positive ratio [17] was 0.00513. For the same substance, the “Expected value λ” value [18] was 0.01107, the Number of positives [18] was 309 and the Positive ratio [18] was 0.01107. The “Expected value λ” value [19] was 0.3476, the Number of positives [19] was 8,245 and the Positive ratio [19] was 0.2936. For the same substance, the “Expected value λ” value [20] was 0.5132, the Number of positives [20] was 11,272 and the Positive ratio [20] was 0.4014. The “Expected value λ” value [21] was 0.00471, the Number of positives [21] was 132 and the Positive ratio [21] was 0.0047. The “Expected value λ” value [22] was 0.01107, the Number of positives [22] was 308 and the Positive ratio [22] was 0.01101. For the same substance, the “Expected value λ” value [23] was 0.2958, the Number of positives [23] was 7,164 and the Positive ratio [23] was 0.2561. The “Expected value λ” value [24] was 0.7034, the Number of positives [24] was 14,130 and the Positive ratio [24] was 0.5051. For the same substance, the “Expected value λ” value [25] was 1.421, the Number of positives [25] was 21,264 and the Positive ratio [25] was 0.7586. For the same substance, the “Expected value λ” value [26] was 1.453, the Number of positives [26] was 21,512 and the Positive ratio [26] was 0.7661. The “Expected value λ” value [27] was 1.465, the Number of positives [27] was 21,591 and the Positive ratio [27] was 0.7689. The “Expected value λ” value [28] was 1.3102, the Number of positives [28] was 20,505 and the Positive ratio [28] was 0.7302. For the same substance, the “Expected value λ” value [29] was 1.962, the Number of positives [29] was 24,077 and the Positive ratio [29] was 0.8594. The “Expected value λ” value [30] was 3.133, the Number of positives [30] was 26,856 and the Positive ratio [30] was 0.9564. The “Expected value λ” value [31] was 0.3978, the Number of positives [31] was 9,216 and the Positive ratio [31] was 0.3282. For the same substance, the “Expected value λ” value [32] was 0.1873, the Number of positives [32] was 4,791 and the Positive ratio [32] was 0.1708. The “Expected value λ” value [33] was 0.1593, the Number of positives [33] was 4,129 and the Positive ratio [33] was 0.1472. The “Expected value λ” value [34] was 0.0176, the Number of positives [34] was 490 and the Positive ratio [34] was 0.01745. The “Expected value λ” value [35] was 0.01104, the Number of positives [35] was 308 and the Positive ratio [35] was 0.01098. The “Expected value λ” value [36] was 0.01161, the Number of positives [36] was 324 and the Positive ratio [36] was 0.01154. For the same substance, the “Expected value λ” value [37] was 0.02444, the Number of positives [37] was 678 and the Positive ratio [37] was 0.02415. The “Expected value λ” value [38] was 0.00075, the Number of positives [38] was 21 and the Positive ratio [38] was 0.00075.
